From PMC10303920, “Competition between skin antimicrobial peptides and commensal bacteria in type 2 inflammation enables survival of S. aureus” (Cell reports, 2023)

Experiments:
[1] = test system: CoNS-AM+ strains of S. epidermidis or S. hominis; experiment: Bacterial survival on pigskin, antibiotic-producing CoNS; assay type: cell-based; conditions: LL-37 2.5 nmol on 2.5 × 2.5 cm pigskin sheet, 1 × 10^6 CFU, 30°C, 24 h; Figure 4F
Method: (§1) Fresh-frozen pigskin sheets were obtained from Loretta Tomlin Animal Technologies (Livermore, CA) and sanitized by surgical brush with 3% chloroxylenol. The skin sheet was cut into 2.5 cm × 2.5 cm and rinsed with sterile PBS more than 20 times to remove chloroxylenol residue. Synthetic LL-37 (2.5nanomol/50μL H2O) or equal volume of vehicle was applied to the surface of sanitized pig skin. Antibiotic-producing or non-antibiotic-producing strain of CoNS (1 × 10^6 CFU/10μL PBS) was applied on the pigskin. Pigskin sheet was placed on a 6-well plate and incubated at 30°C for 24 h. The entire skin sheet was rubbed 50 times with nylon foam swab (Puritan) pre-moisturized with PBS to collect bacteria on the skin surface. Swab sample was suspended in 1mL of 85% TSB/15% glycerol and frozen until analysis.

[2] = test system: CoNS-AM− strains of S. epidermidis or S. hominis; experiment: Bacterial survival on pigskin, non-antibiotic-producing CoNS; assay type: cell-based; conditions: LL-37 2.5 nmol on 2.5 × 2.5 cm pigskin sheet, 1 × 10^6 CFU, 30°C, 24 h; Figure 4F
Method: as §1

[3] = test system: ShA9-ΔLanti; experiment: Synergistic antimicrobial assay between LL-37 and ShA9 lantibiotics; assay type: cell-based, Staphylococcus hominis; conditions: sub-antimicrobial doses of LL-37 (4 or 8 μM) plus conditioned medium from ShA9-WT, 90% RPMI/10% TSB, 30°C, 24 h; Figure 5A
Method: ShA9 or S. epidermidis A11 strains, lantibiotic producing CoNS, were cultured in TSB at 37°C with shake overnight. Bacteria were removed by centrifugation, followed by sterile filtration with 0.22μm membrane. Lantibiotics from each strain was precipitated by adding ammonium sulfate into the sterile conditioned media at 70% saturation. The ammonium sulfate precipitation of conditioned media were dissolved in 90% RPMI1640 supplemented by 10% TSB. ShA9-DLanti mutant or S. hominis C6 strain were cultured in TSB at 37°C overnight and washed with PBS. These strain was incubated with conditioned media precipitation (0–100%) along with 0, 4, 8mM of LL-37 in 90% RPMI/10% TSB at 30°C for 24 h. Concentration of conditioned media precipitation added was calculated based on the original volume of sterile conditioned media. Bacterial survival was evaluated by measuring OD600 or counting CFUs.

[4] = test system: S. hominis C6 strain; experiment: Synergistic antimicrobial assay between LL-37 and Pep-5; assay type: cell-based, Staphylococcus hominis; conditions: strain lacking antimicrobial activity; 90% RPMI/10% TSB, 30°C, 24 h; Figure S9
Method: ShA9 or S. epidermidis A11 strains, lantibiotic producing CoNS, were cultured in TSB at 37°C with shake overnight. Bacteria were removed by centrifugation, followed by sterile filtration with 0.22μm membrane. Lantibiotics from each strain was precipitated by adding ammonium sulfate into the sterile conditioned media at 70% saturation. The ammonium sulfate precipitation of conditioned media were dissolved in 90% RPMI1640 supplemented by 10% TSB. ShA9-DLanti mutant or S. hominis C6 strain were cultured in TSB at 37°C overnight and washed with PBS. These strain was incubated with conditioned media precipitation (0–100%) along with […] of LL-37 in 90% RPMI/10% TSB at 30°C for 24 h. Concentration of conditioned media precipitation added was calculated based on the original volume of sterile conditioned media. Bacterial survival was evaluated by measuring OD600 or counting CFUs.

[5] = test system: ShA9-ΔLanti; experiment: Transmission electron microscopy of ShA9-ΔLanti; assay type: cell-based, Staphylococcus hominis; conditions: 30°C, 30 min, Figure 5C
Method: To observe the effect of synergistic antimicrobial action between host AMP and lantibiotic on ShA9, ShA9-DLanti mutant were incubated in 90% RPMI media/10% TSB containing LL-37 ([…]), ammonium sulfate precipitation fraction of conditioned media from ShA9-WT (25% calculated from the original volume of media), or combination at 30°C for 30 min. Bacterial cells were washed with PBS twice and immediately fixed by re-suspending in modified Karnovsky’s fixative for 4 h, followed by 1% osmium tetroxide in 0.1 M cacodylate buffer for 1 h on ice. The cells were stained with 2% uranyl acetate for 1 h on ice, dehydrated in a graded series of ethanol (50–100%), washed with acetone, and then embedded with Durcupan. Sections (60 nm) were post-stained with 2% uranyl acetate for 5 min and Sato’s lead stain for 1 min. Grids were viewed using a JEOL JEM-1400Plus (JEOL, Peabody, MA) transmission electron microscope and photographed using a Gatan OneView 4 K digital camera (Gatan, Pleasanton, CA).

[6] = test system: mixture of S. aureus (ATCC35556), ShA9-WT and ShA9-ΔLanti; experiment: Staphylococcus competition assay in vitro; assay type: cell-based, Staphylococcus aureus, Staphylococcus hominis; conditions: RPMI1640, 1 × 10^6 CFU/mL each strain, 30°C, 3 h, Figure 6B
Method: Three Staphylococcus strains, S. aureus (ATCC35556), ShA9-WT (antibiotic-producing strain) or ShA9-Dlanti mutant (non-antimicrobial strain) were individually cultured in TSB. Bacterial cells were washed with PBS and re-suspended in fresh PBS. For in vitro competition assay, three bacterial strains were suspended in RPMI1640 media (1mL) at 1 × 10^6 CFU/mL each and LL-37 was added at 0, 1, 2, 4, 8, 16μM. Bacterial mixture were incubated at 30°C for 3 h without shaking. […] Proportion of three Staphylococcus strains was determined by CFU counting on mannitol salt agar with egg yolk for total Staphylococcus CFU and on Barid-Parker agar for S. aureus. Relative proportion of Staphylococcus species was determined as following; S. aureus: CFUs on Baird-Parker CFU/CFUs on mannitol salt agar, CoNS: CFUs on mannitol salt agar – CFUs on Baird-Parker. Ratio of ShA9-WT to ShA9-DLanti mutant were measured by analyzing 12 colonies of pink color CoNS colonies without halo on mannitol salt agar from each sample with colony PCR using lantibiotic-specific primers (key resources table).
Survival of S. aureus and CoNS were measured on Baird-Parker agar for S. aureus or mannitol salt agar with egg yolk for total Staphylococcus species using easySpiral automatic diluter plater with exponential mode or circle mode and automatic colony counter (Interscience Inc., France). […]

Q: LL-37 was tested. Which “Survival of CoNS strains with antibiotic activity on pigskin” value [1] did it give?
A: inhibited survival

Q: What about the “Survival of CoNS strains without antibiotic activity on pigskin” value [2] of the same substance?
A: did not inhibit

Q: What about the “Growth of ShA9-ΔLanti with the combination of LL-37 and ShA9 CM containing lantibiotics” value [3] of the same substance?
A: synergistically inhibited growth

Q: And the “Antimicrobial interaction of LL-37 combined with Pep-5 on S. hominis C6” value [4]?
A: synergy

Q: What about the “Electron microscopy findings in ShA9-ΔLanti after exposure to the single agent alone” value ([5]; LL-37 or ShA9-CM alone) of the same substance?
A: did not show these changes

Q: What about the “Electron microscopy findings in ShA9-ΔLanti after the combination of lantibiotic-containing CM and LL-37” value ([5]; combination) of the same substance?
A: promote membrane damage

Q: What about the “Shift in relative proportion of the bacterial mixture at lower LL-37 concentrations” value ([6]; LL-37 1–4 μM) of the same substance?
A: favor growth of S. aureus and ShA9-ΔLanti over the antibiotic-producing ShA9-WT

Q: What about the “Effect on the bacterial mixture at higher LL-37 concentrations” value ([6]; LL-37 8–16 μM) of the same substance?
A: inhibited both the antibiotic-producing CoNS and S. aureus
